Columns and labels:
Fecal recovery = assay type: in vivo, Sprague Dawley rats; conditions: male, Sprague-Dawley, faeces; rat, oral gavage 1 mg/kg, collection time 48 h
Description: Three male Sprague Dawley rats were administered 1 mg/kg test compound by oral gavage. Feces were collected from study animals from 0-48 or 0-72 hours after dosing, dried by lyophilization, and homogenized. Replicate aliquots of 40-60 mg each were subjected to extraction/protein precipitation with 7:1 acetonitrile:water and centrifuged. Supernatants were diluted 1:10 in 50:50 acetonitrile:water prior to analysis by LC-MS/MS. Compound concentrations, determined by interpolation from a standard calibration curve prepared in blank feces matrix, were converted to the percentage of dosed material recovered by taking into account the total collected fecal matter. The percent recovery for each rat was reported as the mean of the calculations from replicate samples. The overall percent recovery (Fecal Recovery [%]) was reported as the mean percent recovery from three rats. Accurate quality control sample recoveries were confirmed in each run and extraction efficiency was periodically verified.

human NHE3 [1] = biological target: T1, human NHE3 (Homo sapiens, UniProt P48764); assay: Cell-based assay of NHE-3 activity (persistent inhibition), human; conditions: PS120 fibroblasts stably expressing human NHE3, 60 min incubation then washout; for IC50: read-out: pIC50 (human Persistence assay) (converted)
T1 sequence (P48764 26-834): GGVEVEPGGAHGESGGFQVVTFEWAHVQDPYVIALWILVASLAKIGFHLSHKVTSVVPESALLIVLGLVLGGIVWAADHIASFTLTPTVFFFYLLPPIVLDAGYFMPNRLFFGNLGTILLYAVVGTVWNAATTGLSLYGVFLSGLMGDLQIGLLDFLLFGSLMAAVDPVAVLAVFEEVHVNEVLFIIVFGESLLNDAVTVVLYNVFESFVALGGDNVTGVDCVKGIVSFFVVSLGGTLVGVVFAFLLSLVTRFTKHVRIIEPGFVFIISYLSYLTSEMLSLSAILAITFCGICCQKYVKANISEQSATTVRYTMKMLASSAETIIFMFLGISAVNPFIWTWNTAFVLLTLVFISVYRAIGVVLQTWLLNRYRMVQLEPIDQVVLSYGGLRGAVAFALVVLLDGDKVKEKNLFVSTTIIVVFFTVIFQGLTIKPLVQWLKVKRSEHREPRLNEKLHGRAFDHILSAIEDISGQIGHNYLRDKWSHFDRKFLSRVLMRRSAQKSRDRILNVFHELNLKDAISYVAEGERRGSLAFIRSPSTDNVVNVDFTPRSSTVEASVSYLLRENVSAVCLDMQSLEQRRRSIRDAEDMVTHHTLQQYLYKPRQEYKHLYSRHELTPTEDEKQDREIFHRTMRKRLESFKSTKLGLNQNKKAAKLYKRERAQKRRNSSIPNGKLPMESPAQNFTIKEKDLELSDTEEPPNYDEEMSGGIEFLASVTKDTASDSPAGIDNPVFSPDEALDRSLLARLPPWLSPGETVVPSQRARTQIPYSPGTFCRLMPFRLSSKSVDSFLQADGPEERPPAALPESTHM
Description: The ability of compounds to inhibit human and rat NHE-3-mediated Na^+-dependent H^+ antiport after application and washout was measured using a modification of the pH sensitive dye method described above. PS120 fibroblasts stably expressing human NHE3 were obtained from Mark Donowitz (Baltimore, Md.). Opossum kidney (OK) cells were obtained from the ATCC and propagated per their instructions. The rat NHE-3 gene was introduced into OK cells via electroporation, and cells were seeded into 96 well plates and grown overnight. Medium was aspirated from the wells, cells were washed once with NaCl-HEPES buffer (100 mM NaCl, 50 mM HEPES, 10 mM glucose, 5 mM KCl, 2 mM CaCl2, 1 mM MgCl2, pH 7.4), then overlayed with NaCl-HEPES buffer containing 0-30 μM test compound. After a 60 min incubation at room temperature, the test drug containing buffer was aspirated from the cells. Following aspiration, cells were washed once with NaCl-HEPES buffer without drug, then incubated for 30 min at 37° C. with NH4Cl-HEPES buffer (20 mM NH4Cl, 80 mM NaCl, 50 mM HEPES, 5 mM KCl, 2 mM CaCl2, 1 mM MgCl2, pH 7.4) containing 5 μM BCECF-AM. Cells were washed once with Ammonium free, Na^+-free HEPES (100 mM choline, 50 mM HEPES, 10 mM glucose, 5 mM KCl, 2 mM CaCl2, 1 mM MgCl2, pH 7.4) and incubated in the same buffer for 10 minutes at room temperature to lower intracellular pH. NHE-3-mediated recovery of neutral intracellular pH was initiated (10 min after compound washout) by addition of Na-HEPES buffer. […] Changes in intracellular pH were monitored using a FLIPR Tetra® (Molecular Devices, Sunnyvale, Calif.) by excitation at λex 439 to 505 nm, and measuring BCECF fluorescence at λem 538 nm. The initial rate of the fluorescence ratio change was used as a measure of NHE-mediated Na^+/H^+ activity, and reported as the change in fluorescence ratio per minute. Initial rates were plotted as the average 2 or more replicates, and pIC50 values were estimated using GraphPad Prism.

human NHE3 [2] = biological target: T1, human NHE3; assay: Cell-based assay of NHE-3 activity (human NHE3 inhibition assay); set-up: expressed in transfected cells; host or cells: Opossum kidney (OK) cells (ATCC), electroporated; conditions: OK cells with human NHE-3 gene, BCECF pH recovery, 0-30 μM test compound; read-out: Human NHE3 pIC50 (converted)
Procedure, shortened: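 Opossum kidney cells electroporated with rat or human NHE-3, loaded with 5 μM BCECF-AM in NH4Cl-HEPES pH 7.4 for 30 min at RT, then acidified 10 min in Na+-free choline HEPES. Na+-dependent pH recovery rates from BCECF fluorescence, averaged over ≥2 replicates, gave pIC50.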

dose excreted (Fecal recovery) [%] | % inhibition (human Persistence assay) (human NHE3 [1]) | IC50 (human NHE3 [1]) [nM] | IC50 (human NHE3 [2]) [nM] | SMILES
69.2 | C (>70%) | < 100 | < 100 | N[C@@H]1CCCN([C@H]2Cc3c(Cl)cc(Cl)cc3[C@@H]2Oc2ccc(S(=O)(=O)NCCOCCOCCNC(=O)NCCCCNC(=O)NCCOCCOCCNS(=O)(=O)c3ccc(O[C@H]4c5cc(Cl)cc(Cl)c5C[C@@H]4N4CCC[C@@H](N)C4)cc3)cc2)C1 [Example 3, (S,S,R)—N,N′-(10,17-dioxo-3,6,21,24-tetraoxa-9,11,16,18-tetraazahexacosane-1,26-diyl)bis(4-((1S,2S)-2-((R)-3-aminopiperidin-1-yl)-4,6-dichloro-2,3-dihydro-1H-inden-1-yloxy)benzenesulfonamide)]
65.7 | C (>70%) | 100 to 1000 | < 100 | CN(C)[C@H]1Cc2c(Cl)cc(Cl)cc2[C@@H]1Oc1ccc(S(=O)(=O)NCCOCCOCCNC(=O)COCC(=O)NCCOCCOCCNS(=O)(=O)c2ccc(O[C@H]3c4cc(Cl)cc(Cl)c4C[C@@H]3N(C)C)cc2)cc1 [Example 9, 2,2′-oxybis(N-(2-(2-(2-(4-((1S,2S)-4,6-dichloro-2-(dimethylamino)-2,3-dihydro-1H-inden-1-yloxy)phenylsulfonamido)ethoxy)ethoxy)ethyl)acetamide)]
82.1 | B (40-70%) | < 100 | < 100 | CN(C)[C@H]1Cc2c(Cl)cc(Cl)cc2[C@@H]1Oc1ccc(S(=O)(=O)NCCOCCOCCNC(=O)CCC(C)(N)CCC(=O)NCCOCCOCCNS(=O)(=O)c2ccc(O[C@H]3c4cc(Cl)cc(Cl)c4C[C@@H]3N(C)C)cc2)cc1 [Example 11, 4-amino-N1,N7-bis(2-(2-(2-(4-((1S,2S)-4,6-dichloro-2-(dimethylamino)-2,3-dihydro-1H-inden-1-yloxy)phenylsulfonamido)ethoxy)ethoxy)ethyl)-4-methylheptanediamide]
66.8 | C (>70%) | < 100 | < 100 | O=C(NCCCCNC(=O)NCCOCCOCCNS(=O)(=O)c1ccc(O[C@H]2c3cc(Cl)cc(Cl)c3C[C@@H]2N2CC[C@@H](O)C2)cc1)NCCOCCOCCNS(=O)(=O)c1ccc(O[C@H]2c3cc(Cl)cc(Cl)c3C[C@@H]2N2CC[C@@H](O)C2)cc1 [Example 30]

— patent publication US10376481B2, “Compounds and methods for inhibiting NHE-mediated antiport in the treatment of disorders associated with fluid retention or salt overload and gastrointestinal tract disorders” (ARDELYX, INC, priority 2012, dated 2019)
